Several values for one entry are separate records, joined by “and”; a condition that tells them apart may be missing. Equal values may be shown once. Inconclusive results and toxic doses are left out.
System: B6C3F1 mice, ip Sarcoma M5076, median survival T/C
Experiment: NCI In Vivo Anticancer Drug Screen. Data for tumor model Sarcoma M5076 (intraperitoneal) in B6C3F1 mice
Conditions: endpoint: median survival time, higher = longer survival
Protocol: The antitumor activity of compounds was measured in mice bearing transplantable tumors. Survival or tumor size were measured and the results are expressed as the measurement made in the treated group (T) divided by the measurement made in the vehicle treated control group (C). The tumor model used in this assay is Sarcoma M5076 (intraperitoneal) in B6C3F1 mice

[1] = dose: 50.0 mg/kg/injection, schedule: Q04DX004 (ip), vehicle: saline with Tween-80
[2] = dose: 100.0 mg/kg/injection, schedule: Q04DX004 (ip), vehicle: saline with Tween-80
[3] = dose: 200.0 mg/kg/injection, schedule: Q04DX004 (ip), vehicle: saline with Tween-80
[4] = dose: 75.0 mg/kg/injection, schedule: Q04DX004 (ip), vehicle: saline with Tween-80
[5] = dose: 150.0 mg/kg/injection, schedule: Q04DX004 (ip), vehicle: saline with Tween-80
[6] = dose: 300.0 mg/kg/injection, schedule: Q04DX004 (ip), vehicle: saline with Tween-80
[7] = dose: 600.0 mg/kg/injection, schedule: Q04DX004 (ip), vehicle: saline with Tween-80
[8] = dose: 12.5 mg/kg/injection, schedule: Q04DX004 (ip), vehicle: saline with Tween-80
[9] = dose: 25.0 mg/kg/injection, schedule: Q04DX004 (ip), vehicle: saline with Tween-80
[10] = dose: 50.0 mg/kg/injection, schedule: Q04DX004 (ip), vehicle: Klucel (hydroxypropylcellulose) (HPC)
[11] = dose: 100.0 mg/kg/injection, schedule: Q04DX004 (ip), vehicle: Klucel (hydroxypropylcellulose) (HPC)
[12] = dose: 200.0 mg/kg/injection, schedule: Q04DX004 (ip), vehicle: Klucel (hydroxypropylcellulose) (HPC)
[13] = dose: 125.0 mg/kg/injection, schedule: Q04DX004 (ip), vehicle: saline with Tween-80

SMILES: CCC1OCC(C(Cl)CCl)O1 (stereo not given)
- T/C [1]: 100 % of control
- T/C [2]: 97 % of control
- T/C [3]: 93 % of control

SMILES: CNc1ncn(-c2c(C)cccc2C)c(=O)n1
- T/C (dose: 4.69 mg/kg/injection, schedule: Q04DX004 (ip), vehicle: saline with Tween-80): 98 % of control
- T/C (dose: 9.38 mg/kg/injection, schedule: Q04DX004 (ip), vehicle: saline with Tween-80): 109 % of control
- T/C (dose: 18.75 mg/kg/injection, schedule: Q04DX004 (ip), vehicle: saline with Tween-80): 110 % of control
- T/C (dose: 37.5 mg/kg/injection, schedule: Q04DX004 (ip), vehicle: saline with Tween-80): 109 % of control
- T/C [4]: 100 % of control and 105 % of control and 115 % of control
- T/C [5]: 99 % of control
- T/C [6]: 100 % of control
- T/C [7]: 99 % of control

SMILES: CCC/C=C/C=C/C(=O)OC1/C(=C/C(=O)OC)CC2CC(C(C)O)OC(=O)CC(O)CC3CC(OC(C)=O)C(C)(C)C(O)(CC4C/C(=C/C(=O)OC)CC(/C=C/C(C)(C)C1(O)O2)O4)O3 (stereo not given)
- T/C (dose: 10.0 micrograms/kg/injection, schedule: Q01DX009 (ip), vehicle: saline): 102 % of control
- T/C (dose: 20.0 micrograms/kg/injection, schedule: Q01DX009 (ip), vehicle: saline): 104 % of control
- T/C (dose: 40.0 micrograms/kg/injection, schedule: Q01DX009 (ip), vehicle: saline): 107 % of control
- T/C (dose: 80.0 micrograms/kg/injection, schedule: Q01DX009 (ip), vehicle: saline): 109 % of control

SMILES: Clc1ccccc1C(Cc1c(Cl)cccc1Cl)Cn1ccnc1 (stereo not given)
- T/C [8]: 100 % of control
- T/C [9]: 101 % of control
- T/C [1]: 101 % of control
- T/C [2]: 93 % of control

SMILES: [N-]=[N+]=NCc1cnnn1C1OC(CO)C(O)C1O (stereo not given)
- T/C (dose: 37.5 mg/kg/injection, schedule: Q04DX004 (ip), vehicle: saline): 104 % of control
- T/C (dose: 75.0 mg/kg/injection, schedule: Q04DX004 (ip), vehicle: saline): 103 % of control
- T/C (dose: 150.0 mg/kg/injection, schedule: Q04DX004 (ip), vehicle: saline): 104 % of control
- T/C (dose: 300.0 mg/kg/injection, schedule: Q04DX004 (ip), vehicle: saline): 107 % of control
- T/C (dose: 600.0 mg/kg/injection, schedule: Q04DX004 (ip), vehicle: saline): 103 % of control

SMILES: CC(=O)Nc1ccc(O)c(O)c1
- T/C [4]: 107 % of control
- T/C [5]: 113 % of control
- T/C [6]: 105 % of control
- T/C [7]: 101 % of control
- T/C (dose: 1200.0 mg/kg/injection, schedule: Q04DX004 (ip), vehicle: saline with Tween-80): 104 % of control

SMILES: CC(C)c1cc(C(=O)O)c(O)c(C(C)C)c1.CC(C)c1cc(C(=O)O)c(O)c(C(C)C)c1.[Cu]
- T/C (dose: 1.5 mg/kg/injection, schedule: Q04DX004 (ip), vehicle: saline with Tween-80): 95 % of control and 104 % of control
- T/C (dose: 3.0 mg/kg/injection, schedule: Q04DX004 (ip), vehicle: saline with Tween-80): 102 % of control and 104 % of control
- T/C (dose: 6.0 mg/kg/injection, schedule: Q04DX004 (ip), vehicle: saline with Tween-80): 96 % of control and 102 % of control
- T/C (dose: 12.0 mg/kg/injection, schedule: Q04DX004 (ip), vehicle: saline with Tween-80): 88 % of control and 102 % of control
- T/C [8]: 93 % of control
- T/C (dose: 24.0 mg/kg/injection, schedule: Q04DX004 (ip), vehicle: saline with Tween-80): 90 % of control

SMILES: CC1=CC(=NN=c2cc(C)n([O-])c(C)c2)C=C(C)[N+]1=O
- T/C [2]: 122 % of control
- T/C [3]: 121 % of control
- T/C (dose: 400.0 mg/kg/injection, schedule: Q04DX004 (ip), vehicle: saline with Tween-80): 98 % of control

SMILES: O=C(O)C1CC(O)CN1 (stereo not given)
- T/C (dose: 50.0 mg/kg/injection, schedule: Q04DX004 (ip), vehicle: suspension in saline): 110 % of control
- T/C (dose: 100.0 mg/kg/injection, schedule: Q04DX004 (ip), vehicle: suspension in saline): 103 % of control
- T/C (dose: 200.0 mg/kg/injection, schedule: Q04DX004 (ip), vehicle: suspension in saline): 97 % of control
- T/C (dose: 400.0 mg/kg/injection, schedule: Q04DX004 (ip), vehicle: suspension in saline): 102 % of control
- T/C (dose: 800.0 mg/kg/injection, schedule: Q04DX004 (ip), vehicle: suspension in saline): 100 % of control

SMILES: O=S1ON=C(C2CCC(C3=NOS(=O)O3)C2)O1 (stereo not given)
- T/C [9]: 108 % of control
- T/C [1]: 102 % of control
- T/C [2]: 103 % of control
- T/C [3]: 87 % of control

SMILES: COc1ccc(Cl)c2c1[nH]c1nc3nc4cc(Cl)ccc4n3nc12
- T/C [4]: 91 % of control
- T/C [5]: 90 % of control

SMILES: CC(C)(C)c1noc2c1C(=O)c1ccccc1-2
- T/C [9]: 102 % of control
- T/C [1]: 105 % of control
- T/C [2]: 100 % of control
- T/C [3]: 90 % of control

SMILES: CN(C)CCCOc1nc2c(c(=O)n(C)c(=O)n2C)n1C (tested in a mixture with another compound)
- T/C [10]: 169 % of control and 182 % of control
- T/C [11]: 163 % of control and 197 % of control
- T/C [12]: 208 % of control and 267 % of control

SMILES: NC(=O)c1ccc[n+](Cc2c(Cl)cccc2Cl)c1
- T/C (dose: 12.5 mg/kg/injection, schedule: Q04DX004 (ip), vehicle: saline): 100 % of control
- T/C (dose: 25.0 mg/kg/injection, schedule: Q04DX004 (ip), vehicle: saline): 99 % of control
- T/C (dose: 50.0 mg/kg/injection, schedule: Q04DX004 (ip), vehicle: saline): 100 % of control
- T/C (dose: 100.0 mg/kg/injection, schedule: Q04DX004 (ip), vehicle: saline): 96 % of control

SMILES: CC1C(c2ccccc2)OC(N2CCOCC2)C(C)(C)CN1C (stereo not given)
- T/C [5]: 101 % of control
- T/C [6]: 104 % of control
- T/C [7]: 99 % of control

SMILES: Cc1cc(C(F)(F)F)nc2nc3ccccc3n12
- T/C (dose: 37.5 mg/kg/injection, schedule: Q04DX004 (ip), vehicle: Klucel (hydroxypropylcellulose) (HPC)): 100 % of control
- T/C (dose: 75.0 mg/kg/injection, schedule: Q04DX004 (ip), vehicle: Klucel (hydroxypropylcellulose) (HPC)): 95 % of control
- T/C (dose: 150.0 mg/kg/injection, schedule: Q04DX004 (ip), vehicle: Klucel (hydroxypropylcellulose) (HPC)): 96 % of control
- T/C (dose: 300.0 mg/kg/injection, schedule: Q04DX004 (ip), vehicle: Klucel (hydroxypropylcellulose) (HPC)): 95 % of control

SMILES: CCOC1NC(=O)Oc2ccccc21 (stereo not given)
- T/C [10]: 107 % of control
- T/C [11]: 100 % of control
- T/C [12]: 99 % of control
- T/C (dose: 400.0 mg/kg/injection, schedule: Q04DX004 (ip), vehicle: Klucel (hydroxypropylcellulose) (HPC)): 121 % of control

SMILES: COc1cc(C(CC(C)=O)c2cc3c(cc2OC(C)=O)OCO3)cc(OC)c1OC (stereo not given) (tested in a mixture with another compound)
- T/C (dose: 27.0 mg/kg/injection, schedule: Q04DX004 (ip), vehicle: saline with Tween-80): 100 % of control
- T/C (dose: 45.0 mg/kg/injection, schedule: Q04DX004 (ip), vehicle: saline with Tween-80): 101 % of control and 103 % of control
- T/C [4]: 111 % of control and 119 % of control
- T/C [13]: 119 % of control
- T/C (dose: 208.3 mg/kg/injection, schedule: Q04DX004 (ip), vehicle: saline with Tween-80): 124 % of control

SMILES: COc1ccc(N2CCCSC2=S)cc1
- T/C (dose: 31.25 mg/kg/injection, schedule: Q04DX004 (ip), vehicle: saline + Tween-80 + alcohol): 97 % of control
- T/C (dose: 62.5 mg/kg/injection, schedule: Q04DX004 (ip), vehicle: saline + Tween-80 + alcohol): 91 % of control

SMILES: COc1ccc(-n2cc[n+](C)c2/C=N\O)cc1
- T/C (dose: 31.25 mg/kg/injection, schedule: Q04DX004 (ip), vehicle: saline with Tween-80): 101 % of control
- T/C (dose: 62.5 mg/kg/injection, schedule: Q04DX004 (ip), vehicle: saline with Tween-80): 94 % of control
- T/C [13]: 114 % of control

SMILES: N=C(N)c1ccc(Nc2ccc(-c3cc4ccc(C(=N)N)cc4[nH]3)cc2)cc1
- T/C (dose: 3.75 mg/kg/injection, schedule: Q04DX004 (ip), vehicle: Klucel (hydroxypropylcellulose) (HPC)): 115 % of control

SMILES: O=C(O)CCCCCCCC(=O)O
- T/C (dose: 75.0 mg/kg/injection, schedule: Q04DX004 (ip), vehicle: distilled water + Tween-80): 111 % of control
- T/C (dose: 150.0 mg/kg/injection, schedule: Q04DX004 (ip), vehicle: distilled water + Tween-80): 99 % of control
- T/C (dose: 300.0 mg/kg/injection, schedule: Q04DX004 (ip), vehicle: distilled water + Tween-80): 93 % of control
